Results on 35 compounds are retold here after ChEMBL document CHEMBL1155440, “1-(5-carboxyindol-1-yl)propan-2-one inhibitors of human cytosolic phospholipase A(2)alpha with reduced lipophilicity: synthesis, biological activity, metabolic stability, solubility, bioavailability, and topical in vivo activity” (J Med Chem, 2010).

Converted amounts (≈) assume the structure as drawn. The source made the active and inactive calls. No cut-off for these calls is given here.

Data set [1] is described as follows: Inhibition of human platelet cPLA2alpha assessed as inhibition of arachidonic acid production after 60 mins by UV-reverse phase HPLC analysis. Conditions: 1 h.
The nature of data set [2]: Thermodynamic solubility in sodium phosphate buffer of pH 7.4 by UV-reverse phase HPLC analysis. The data set is classed as physicochemical.
Data set [3] can be described thus: Metabolic stability in rat liver microsomes assessed as compound remaining after 30 mins by HPLC/MS analysis. The note with it: read-out: Stability. The data set is classed as ADME, Microsome.
Data set [4] can be described thus: Partition coefficient, log P at 5 mM by reverse phase HPLC analysis. The data set is classed as physicochemical. Conditions: octanol/water.
The species named for data set [5] is Homo sapiens. The data set is described as follows: Inhibition of human platelet cPLA2alpha assessed as inhibition of arachidonic acid production at 1 uM after 60 mins by UV-reverse phase HPLC analysis.
A short description of data set [6]: Inhibition of cPLA2alpha.
The species entered for data set [7] is Homo sapiens. In words: Inhibition of human platelet cPLA2alpha assessed as inhibition of arachidonic acid production at 33 nM after 60 mins by UV-reverse phase HPLC analysis.
Data set [8] concerns the target T1, 85/88 kDa calcium-independent phospholipase A2 (Rattus norvegicus) (UniProt P97570).
T1 sequence (whole entry): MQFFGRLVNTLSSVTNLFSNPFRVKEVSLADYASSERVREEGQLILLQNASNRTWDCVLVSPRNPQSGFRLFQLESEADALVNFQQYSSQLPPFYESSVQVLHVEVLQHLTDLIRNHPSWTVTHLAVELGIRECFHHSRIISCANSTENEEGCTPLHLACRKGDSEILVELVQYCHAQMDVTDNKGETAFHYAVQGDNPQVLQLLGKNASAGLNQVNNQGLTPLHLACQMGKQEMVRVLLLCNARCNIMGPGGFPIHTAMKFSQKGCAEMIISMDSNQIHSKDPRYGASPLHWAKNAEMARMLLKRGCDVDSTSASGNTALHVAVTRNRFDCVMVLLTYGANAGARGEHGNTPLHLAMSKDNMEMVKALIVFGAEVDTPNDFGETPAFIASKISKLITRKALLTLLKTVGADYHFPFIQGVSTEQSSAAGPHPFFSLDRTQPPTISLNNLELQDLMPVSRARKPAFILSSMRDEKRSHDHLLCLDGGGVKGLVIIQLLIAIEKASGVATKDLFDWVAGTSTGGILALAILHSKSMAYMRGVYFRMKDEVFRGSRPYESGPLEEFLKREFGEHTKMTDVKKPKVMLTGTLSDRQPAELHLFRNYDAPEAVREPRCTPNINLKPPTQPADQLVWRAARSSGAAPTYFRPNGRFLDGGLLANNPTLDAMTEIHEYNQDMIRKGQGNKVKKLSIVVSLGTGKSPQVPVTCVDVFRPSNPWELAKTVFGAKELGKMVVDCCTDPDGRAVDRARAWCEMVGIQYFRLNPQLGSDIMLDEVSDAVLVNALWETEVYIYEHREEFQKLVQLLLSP
The data set is described as follows: Inhibition of Sprague-Dawley rat brain iPLA2 assessed as inhibition of substrate cleavage at 10 uM after 60 mins by HPLC analysis.

For data set [9], the target named is Phospholipase A2, major isoenzyme (Sus scrofa) (UniProt P00592). The data set is described as follows: Inhibition of pig pancreas group 1B sPLA2 assessed as inhibition of POPG cleavage at 10 uM after 30 mins by HPLC analysis.
Phospholipase A2, major isoenzyme (Sus scrofa), sequence (P00592 23-146 limits assumed): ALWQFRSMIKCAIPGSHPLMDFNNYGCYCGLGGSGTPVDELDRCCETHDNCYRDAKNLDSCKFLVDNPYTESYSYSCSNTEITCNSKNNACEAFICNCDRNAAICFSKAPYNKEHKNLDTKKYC

As usually defined, the IC50 is the concentration needed to halve the response being measured. In general, solubility (thermodynamic) refers to the concentration in solution at equilibrium with solid. Broadly, the logP is the decadic logarithm of the partition coefficient of the neutral form, usually between octanol and water. Higher therefore signals a more lipophilic compound. `O=C(COc1ccc(Oc2ccccc2)cc1)Cn1ccc2cc(C(=O)O)ccc21`: the IC50 in [1] is 36 nM. Further, the thermodynamic solubility in [2] amounted to 43 µg/mL (≈ 107 µM). Moreover, in data set [3], the remaining at 0.5 h came out at 3%. The compound also came in with a logP at 5000 µM in data set [4] of 3.1.
A word on the inhibition: it is the change of the read-out against control, counted positive when it falls. `O=C(COc1ccccc1-c1ccccc1)Cn1ccc2cc(C(=O)O)ccc21` gave a solubility (thermodynamic) in [2] of 21 µg/mL (≈ 54.5 µM). In addition, in data set [3], the remaining at 0.5 h turned out to be 81%. For the same compound, in data set [4], the logP at 5000 µM turned out to be 3.1. The inhibition result in the data set listed under Homo sapiens [5] is “inactive”.
As for `CCCCCCCCc1ccc(OCC(=O)Cn2ccc3cc(C(=O)O)ccc32)cc1`, the logP at 5000 µM in data set [4] was found to be 6.3. For the same compound, the IC50 in data set [6] is 120 nM. Further, the inhibition in the data set filed under Homo sapiens [7] was found to be 47%.
Consider `O=C(COc1ccc(-c2ccccc2)cc1)Cn1ccc2cc(C(=O)O)ccc21`, for which the IC50 in [1] came to 64 nM. In addition, in [2], the solubility (thermodynamic) stood at 5 µg/mL (≈ 13 µM). In addition, the remaining at 0.5 h in data set [3] is 7%. Further, the logP at 5000 µM in [4] turned out to be 3.2.
In the case of `Cc1cc(-c2ccccc2)ccc1OCC(=O)Cn1ccc2cc(C(=O)O)ccc21`, in data set [1], the IC50 is over 1000 nM. The solubility (thermodynamic) in data set [2] was under 3 µg/mL. For the same compound, in [3], the remaining at 0.5 h is 33%. Also, the inhibition in the data set filed under Homo sapiens [5] turned out to be 16%.
With `CC(C)c1ccc(-c2ccc(OCC(=O)Cn3ccc4cc(C(=O)O)ccc43)cc2)cc1`, the IC50 in [1] turned out to be 35 nM. This compound gave a thermodynamic solubility in data set [2] of under 3 µg/mL. For the same compound, the remaining at 0.5 h in data set [3] is 40%. In data set [4], this compound yielded a logP at 5000 µM of 4.7.
In data set [2], `COc1cc(-c2ccccc2)ccc1OCC(=O)Cn1ccc2cc(C(=O)O)ccc21` returned a solubility (thermodynamic) of 6 µg/mL (≈ 14.4 µM). Besides, the remaining at 0.5 h in data set [3] is 72%. In data set [4], this compound had a logP at 5000 µM of 2.9. Also, the inhibition entry in the data set filed under Homo sapiens [5] is “inactive”.
In the case of `O=C(COc1ccc(-c2ccccc2)cc1Cl)Cn1ccc2cc(C(=O)O)ccc21`, the IC50 in data set [1] is over 1000 nM. For the same compound, the solubility (thermodynamic) in data set [2] is under 3 µg/mL. In [3], the remaining at 0.5 h was determined as 61%. The compound also returned a logP at 5000 µM in [4] of 3.7. The inhibition in the data set listed under Homo sapiens [5] is 29%.
As to `NC(=O)c1ccc2c(ccn2CC(=O)COc2ccc(-c3ccccc3)cc2)c1`, in data set [1], the IC50 worked out at 150 nM. In data set [2], this compound came in with a thermodynamic solubility of under 3 µg/mL. Also, the remaining at 0.5 h in data set [3] was determined as 33%. The logP at 5000 µM in [4] is 2.4.
On the same counts, the results for `O=C(COc1ccc(OCCOc2ccccc2)cc1)Cn1ccc2cc(C(=O)O)ccc21` are 110 nM, 31 µg/mL (≈ 69.6 µM), 21% and 3.1.
`Cc1ccc(-c2ccc(OCC(=O)Cn3ccc4cc(C(=O)O)ccc43)cc2)cc1`: the IC50 in data set [1] amounted to 40 nM. In data set [2], this compound had a thermodynamic solubility of under 3 µg/mL. The remaining at 0.5 h in data set [3] was found to be 22%. The same compound displayed a logP at 5000 µM in [4] of 3.7.
On the same counts, the results for `O=C(COc1ccc(-c2cccc(F)c2)cc1)Cn1ccc2cc(C(=O)O)ccc21` are 41 nM, under 3 µg/mL, 22% and 3.2.
On the same counts, the results for `CCCCCCCCCCOc1ccc(OCC(=O)Cn2ccc3cc(C(=O)O)ccc32)cc1` are 20 nM, under 3 µg/mL, 67% and 7.1.
On the same counts, the results for `CCCCCCCCOc1ccc(OCC(=O)Cn2ccc3cc(C(=O)O)ccc32)cc1` are 26 nM, under 3 µg/mL, 79% and 5.9.
`NC(=O)c1ccc2c(ccn2CC(=O)COc2cccc(-c3ccccc3)c2)c1`: the IC50 in [1] worked out at 250 nM. In addition, the thermodynamic solubility in data set [2] is under 3 µg/mL. In addition, the remaining at 0.5 h in data set [3] was determined as 15%. The logP at 5000 µM in data set [4] is 2.3.
Regarding `O=C(COc1ccc(-c2ccccc2)cc1F)Cn1ccc2cc(C(=O)O)ccc21`, the IC50 in data set [1] turned out to be 230 nM. In data set [2], the solubility (thermodynamic) is 5 µg/mL (≈ 12.4 µM). Further, the remaining at 0.5 h in data set [3] came out at 16%. In data set [4], this compound displayed a logP at 5000 µM of 3.3.
On the same counts, the results for `CC(=O)c1cn(CC(=O)COc2ccc(Oc3ccccc3)cc2)c2ccc(C(=O)O)cc12` are 12 nM, 111 µg/mL (≈ 250 µM), 41% and 2.6.
On the same counts, the results for `CC(=O)c1cn(CC(=O)COc2ccc(OCCOc3ccccc3)cc2)c2ccc(C(=O)O)cc12` are 41 nM, 34 µg/mL (≈ 69.7 µM), 68% and 2.6.
With `COc1ccc(-c2ccc(OCC(=O)Cn3ccc4cc(C(=O)O)ccc43)cc2)cc1`, the IC50 in [1] came out at 90 nM. The compound further returned a solubility (thermodynamic) in data set [2] of under 3 µg/mL. Further, the remaining at 0.5 h in data set [3] was 2%. Also, the logP at 5000 µM in data set [4] is 3.
On the same counts, the results for `O=C(COc1ccc(Oc2ccc(C(F)(F)F)cc2)cc1)Cn1ccc2cc(C(=O)O)ccc21` are 19 nM, under 3 µg/mL, 57% and 4.
On the same counts, the results for `O=C(COc1ccc(-c2ccc(Cl)cc2)cc1)Cn1ccc2cc(C(=O)O)ccc21` are 27 nM, under 3 µg/mL, 46% and 3.9.
On to `O=C1O/C(=C/Br)CCC1c1cccc2ccccc12` (stereo not drawn), for which the inhibition in data set [8] came to 50%.
On to `O=C(COc1ccc(Cc2ccccc2)cc1)Cn1ccc2cc(C(=O)O)ccc21`, for which the IC50 in [1] amounted to 54 nM. The compound also yielded a thermodynamic solubility in [2] of 18 µg/mL (≈ 45.1 µM). The remaining at 0.5 h in data set [3] is 7%. Also, the logP at 5000 µM in [4] came to 3.3.
For `CCCCCCCCc1ccc(OCC(=O)Cn2ccc3cc(C(N)=O)ccc32)cc1`, the IC50 in [1] worked out at 120 nM; in [6], 35 nM. For the same compound, in data set [2], the thermodynamic solubility was under 3 µg/mL. Also, the remaining at 0.5 h in data set [3] is 54%. Further, the logP at 5000 µM in data set [4] was found to be 5.5.
As to `CC(=O)c1cn(CC(=O)COc2ccc(Oc3ccc(C(F)(F)F)cc3)cc2)c2ccc(C(=O)O)cc12`, the IC50 in [1] worked out at 10 nM. In data set [2], the solubility (thermodynamic) is under 3 µg/mL. In addition, in [3], the remaining at 0.5 h turned out to be 73%. Besides, the logP at 5000 µM in data set [4] amounted to 3.5.
On the same counts, the results for `O=C(COc1ccc(-c2cccc(Cl)c2)cc1)Cn1ccc2cc(C(=O)O)ccc21` are 19 nM, under 3 µg/mL, 31% and 3.8.
For the compound `O=C(O)CC[C@@H](Cc1ccc(OCc2ccccc2)cc1)NC(=O)CCCCCCc1ccccc1`, in data set [9], the inhibition came out at 89%.
For the compound `O=C(COc1cccc(-c2ccccc2)c1)Cn1ccc2cc(C(=O)O)ccc21`, in data set [1], the IC50 was found to be 210 nM. In addition, the solubility (thermodynamic) in [2] was 16 µg/mL (≈ 41.5 µM). In addition, the remaining at 0.5 h in data set [3] amounted to 13%. Also, the logP at 5000 µM in data set [4] was 3.1.
On the same counts, the results for `CCCCCCCOc1ccc(OCC(=O)Cn2ccc3cc(C(=O)O)ccc32)cc1` are 32 nM, under 3 µg/mL, 57% and 5.2.
For the compound `CCCCCCCCCOc1ccc(OCC(=O)Cn2ccc3cc(C(=O)O)ccc32)cc1`, the IC50 in [1] was 23 nM. In data set [2], this compound displayed a thermodynamic solubility of under 3 µg/mL. Besides, the remaining at 0.5 h in data set [3] turned out to be 74%. The logP at 5000 µM in data set [4] was determined as 6.5.
On the same counts, the results for `CC(C)(c1ccccc1)c1ccc(OCC(=O)Cn2ccc3cc(C(=O)O)ccc32)cc1` are 47 nM, 25 µg/mL (≈ 58.5 µM), 0% and 4.1.
With `NC(=O)c1ccc2c(ccn2CC(=O)COc2ccccc2-c2ccccc2)c1`, the thermodynamic solubility in [2] was under 3 µg/mL. In [3], the remaining at 0.5 h came out at 20%. The compound also yielded a logP at 5000 µM in data set [4] of 2.3. In addition, the inhibition entry in the data set filed under Homo sapiens [5] was “inactive”.
Turning to `CCCCCCOc1ccc(OCC(=O)Cn2ccc3cc(C(=O)O)ccc32)cc1`, in data set [1], the IC50 worked out at 34 nM. For the same compound, the thermodynamic solubility in [2] was found to be 7 µg/mL (≈ 17.1 µM). The remaining at 0.5 h in data set [3] was 38%. In [4], this compound registered a logP at 5000 µM of 4.6.
In the case of `COc1ccc2c(c1)c(CC(=O)O)c(C)n2C(=O)c1ccc(Cl)cc1` [INDOMETHACIN], the thermodynamic solubility in data set [2] stood at 246 µg/mL (≈ 688 µM). In data set [4], this compound returned a logP at 5000 µM of 2.9.
Turning to `O=C(COc1ccc(-c2ccc(F)cc2)cc1)Cn1ccc2cc(C(=O)O)ccc21`, the IC50 in data set [1] worked out at 37 nM. In addition, the solubility (thermodynamic) in [2] is under 3 µg/mL. Moreover, the remaining at 0.5 h in [3] stood at 14%. Further, in [4], the logP at 5000 µM amounted to 3.2.
